Paper PMC11480411, “Mucosal sugars delineate pyrazine vs pyrazinone autoinducer signaling in Klebsiella oxytoca” (Nature Communications, 2024)
Values joined by “and” are separate entries in the source; they are usually repeats but may differ in a detail not shown here. Equal values may be shown once.

Legend:
Assay type in all cases: cell-based
MC1R = target: T1, MC1R (Homo sapiens, UniProt Q01726); experiment: PRESTO-Tango GPCR screen; conditions: 100 µM
T1 construct: purchased PRESTO-Tango GPCR kit (Roth lab / Addgene)
How it was run: (§1)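 HTLA cells (HEK293 stably expressing β-arrestin-TEV and tTA-luciferase) transiently transfected with GPCR-Tango plasmids, then exposed to compound at 100 μM final for 20 h. Luminescence read after Bright-Glo; activation fold = RLU over PBS control. Dose-response spanned 10^−4 M to 10^−15 M.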

GPR116 = target: T2, GPR116 (Homo sapiens, UniProt Q8IZF2); experiment: PRESTO-Tango GPCR screen; conditions: 100 µM
T2 construct: purchased PRESTO-Tango GPCR kit (Roth lab / Addgene)
How it was run: as §1

AGTR2 = target: T3, AGTR2 (Homo sapiens, UniProt P50052); experiment: PRESTO-Tango GPCR screen; conditions: 100 µM
T3 construct: purchased PRESTO-Tango GPCR kit (Roth lab / Addgene)
How it was run: as §1

BDKBR1 = target: T4, BDKBR1 (Homo sapiens, UniProt P46663); experiment: PRESTO-Tango GPCR screen; conditions: 100 µM
T4 construct: purchased PRESTO-Tango GPCR kit (Roth lab / Addgene)
How it was run: as §1

HTR1B = target: T5, HTR1B (Homo sapiens, UniProt P28222); experiment: PRESTO-Tango GPCR screen; conditions: 100 µM
T5 construct: purchased PRESTO-Tango GPCR kit (Roth lab / Addgene)
How it was run: as §1

CHRM3 = target: T6, CHRM3 (Homo sapiens, UniProt P20309); experiment: PRESTO-Tango GPCR screen; conditions: 100 µM
T6 construct: purchased PRESTO-Tango GPCR kit (Roth lab / Addgene)
How it was run: as §1

KISSPEPTIN-R = target: T7, KISSPEPTIN-R (Homo sapiens, UniProt Q969F8); experiment: PRESTO-Tango GPCR screen; conditions: 100 µM
T7 construct: purchased PRESTO-Tango GPCR kit (Roth lab / Addgene)
T7 sequence (Q969F8 whole entry): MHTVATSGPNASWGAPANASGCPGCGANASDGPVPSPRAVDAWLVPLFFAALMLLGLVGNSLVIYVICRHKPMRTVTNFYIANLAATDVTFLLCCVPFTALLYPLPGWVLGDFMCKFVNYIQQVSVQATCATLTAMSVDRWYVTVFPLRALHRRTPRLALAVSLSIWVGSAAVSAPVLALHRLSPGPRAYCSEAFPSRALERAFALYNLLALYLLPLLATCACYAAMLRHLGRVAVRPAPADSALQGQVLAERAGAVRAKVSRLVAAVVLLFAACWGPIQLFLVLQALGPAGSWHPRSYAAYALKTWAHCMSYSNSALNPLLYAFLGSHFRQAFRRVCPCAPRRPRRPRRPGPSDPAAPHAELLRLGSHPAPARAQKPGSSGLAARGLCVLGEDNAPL
How it was run: as §1

PK1 = target: T8, PK1 (Homo sapiens, UniProt Q8TCW9); experiment: PRESTO-Tango GPCR screen; conditions: 100 µM
T8 construct: purchased PRESTO-Tango GPCR kit (Roth lab / Addgene)
T8 sequence (Q8TCW9 whole entry): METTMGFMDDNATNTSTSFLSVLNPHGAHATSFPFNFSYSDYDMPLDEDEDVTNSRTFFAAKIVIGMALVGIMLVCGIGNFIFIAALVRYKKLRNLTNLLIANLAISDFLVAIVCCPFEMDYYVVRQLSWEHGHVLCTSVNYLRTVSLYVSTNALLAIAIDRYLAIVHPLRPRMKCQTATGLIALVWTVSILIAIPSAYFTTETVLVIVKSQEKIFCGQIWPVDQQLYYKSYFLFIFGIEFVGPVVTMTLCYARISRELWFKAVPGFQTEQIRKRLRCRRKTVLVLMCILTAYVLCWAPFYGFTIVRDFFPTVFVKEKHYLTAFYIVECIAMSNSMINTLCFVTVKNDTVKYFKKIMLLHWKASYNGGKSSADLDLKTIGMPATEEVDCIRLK
How it was run: as §1

ADRB1 = target: T9, ADRB1 (Homo sapiens, UniProt P08588); experiment: PRESTO-Tango GPCR screen; conditions: 100 µM
T9 construct: purchased PRESTO-Tango GPCR kit (Roth lab / Addgene)
T9 sequence (P08588 whole entry): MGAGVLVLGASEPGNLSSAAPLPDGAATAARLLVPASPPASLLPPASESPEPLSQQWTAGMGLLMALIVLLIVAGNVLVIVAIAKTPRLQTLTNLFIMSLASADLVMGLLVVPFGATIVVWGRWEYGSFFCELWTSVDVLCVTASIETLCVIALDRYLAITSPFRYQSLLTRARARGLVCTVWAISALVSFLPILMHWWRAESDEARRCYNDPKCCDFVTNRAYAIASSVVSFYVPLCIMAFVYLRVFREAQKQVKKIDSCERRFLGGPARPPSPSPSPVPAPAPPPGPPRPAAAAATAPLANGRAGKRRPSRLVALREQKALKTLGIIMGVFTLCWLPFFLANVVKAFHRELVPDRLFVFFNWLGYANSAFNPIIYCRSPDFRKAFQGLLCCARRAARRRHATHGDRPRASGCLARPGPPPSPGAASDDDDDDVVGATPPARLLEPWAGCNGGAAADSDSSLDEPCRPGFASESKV
How it was run: as §1

GHSR = target: T10, GHSR (Homo sapiens, UniProt Q92847); experiment: PRESTO-Tango GPCR screen; conditions: 100 µM
T10 construct: purchased PRESTO-Tango GPCR kit (Roth lab / Addgene)
How it was run: as §1

P2RY4 = target: T11, P2RY4 (Homo sapiens, UniProt P51582); experiment: PRESTO-Tango GPCR screen; conditions: 100 µM
T11 construct: purchased PRESTO-Tango GPCR kit (Roth lab / Addgene)
How it was run: as §1

GPR75 = target: T12, GPR75 (Homo sapiens, UniProt O95800); experiment: PRESTO-Tango GPCR screen; conditions: 100 µM
T12 construct: purchased PRESTO-Tango GPCR kit (Roth lab / Addgene)
How it was run: as §1

GPR152 = target: T13, GPR152 (Homo sapiens, UniProt Q8TDT2); experiment: PRESTO-Tango GPCR screen; conditions: 100 µM
T13 construct: purchased PRESTO-Tango GPCR kit (Roth lab / Addgene)
How it was run: as §1

CHRM1 = target: T14, CHRM1 (Homo sapiens, UniProt P11229); experiment: PRESTO-Tango GPCR screen; conditions: 100 µM
T14 construct: purchased PRESTO-Tango GPCR kit (Roth lab / Addgene)
How it was run: as §1

RXFP2 = target: T15, RXFP2 (Homo sapiens, UniProt Q8WXD0); experiment: PRESTO-Tango GPCR screen; conditions: 100 µM
T15 construct: purchased PRESTO-Tango GPCR kit (Roth lab / Addgene)
How it was run: as §1

GPR113 = target: T16, GPR113 (Homo sapiens, UniProt Q8IZF5); experiment: PRESTO-Tango GPCR screen; conditions: 100 µM
T16 construct: purchased PRESTO-Tango GPCR kit (Roth lab / Addgene)
T16 sequence (Q8IZF5 26-1079): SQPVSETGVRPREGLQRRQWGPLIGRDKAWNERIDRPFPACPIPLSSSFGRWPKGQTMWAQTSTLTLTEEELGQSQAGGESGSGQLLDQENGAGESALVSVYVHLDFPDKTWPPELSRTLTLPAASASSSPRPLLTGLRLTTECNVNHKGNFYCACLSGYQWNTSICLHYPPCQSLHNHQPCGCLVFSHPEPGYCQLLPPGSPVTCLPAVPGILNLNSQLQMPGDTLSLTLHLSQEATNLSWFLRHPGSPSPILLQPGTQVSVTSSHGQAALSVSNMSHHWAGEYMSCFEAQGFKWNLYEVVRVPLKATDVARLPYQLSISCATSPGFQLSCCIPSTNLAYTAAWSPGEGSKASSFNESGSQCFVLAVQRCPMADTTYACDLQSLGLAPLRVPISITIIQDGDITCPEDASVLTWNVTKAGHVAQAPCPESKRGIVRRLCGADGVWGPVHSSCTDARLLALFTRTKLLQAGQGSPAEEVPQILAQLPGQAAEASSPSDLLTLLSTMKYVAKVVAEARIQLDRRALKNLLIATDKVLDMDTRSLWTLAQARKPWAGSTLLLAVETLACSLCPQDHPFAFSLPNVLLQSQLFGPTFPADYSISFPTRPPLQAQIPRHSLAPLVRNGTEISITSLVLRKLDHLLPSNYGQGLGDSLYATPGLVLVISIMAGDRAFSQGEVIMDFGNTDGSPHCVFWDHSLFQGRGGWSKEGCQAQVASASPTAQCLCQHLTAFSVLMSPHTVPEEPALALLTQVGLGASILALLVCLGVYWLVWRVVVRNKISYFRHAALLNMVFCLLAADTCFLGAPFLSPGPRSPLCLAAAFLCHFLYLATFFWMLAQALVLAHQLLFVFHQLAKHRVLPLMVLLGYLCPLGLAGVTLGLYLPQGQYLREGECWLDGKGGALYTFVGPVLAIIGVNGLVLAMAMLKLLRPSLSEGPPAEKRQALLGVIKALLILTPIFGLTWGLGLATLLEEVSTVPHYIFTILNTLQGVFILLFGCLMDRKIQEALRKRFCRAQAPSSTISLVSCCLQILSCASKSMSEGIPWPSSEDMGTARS
How it was run: as §1

DRD4 = target: T17, DRD4 (Homo sapiens, UniProt P21917); experiment: PRESTO-Tango GPCR screen; conditions: 100 µM
T17 construct: purchased PRESTO-Tango GPCR kit (Roth lab / Addgene)
How it was run: as §1

OPN3 = target: T18, OPN3 (Homo sapiens, UniProt Q9H1Y3); experiment: PRESTO-Tango GPCR screen; conditions: 100 µM
T18 construct: purchased PRESTO-Tango GPCR kit (Roth lab / Addgene)
How it was run: as §1

SSTR3 = target: T19, SSTR3 (Homo sapiens, UniProt P32745); experiment: PRESTO-Tango GPCR screen; conditions: 100 µM
T19 construct: purchased PRESTO-Tango GPCR kit (Roth lab / Addgene)
T19 sequence (P32745 whole entry): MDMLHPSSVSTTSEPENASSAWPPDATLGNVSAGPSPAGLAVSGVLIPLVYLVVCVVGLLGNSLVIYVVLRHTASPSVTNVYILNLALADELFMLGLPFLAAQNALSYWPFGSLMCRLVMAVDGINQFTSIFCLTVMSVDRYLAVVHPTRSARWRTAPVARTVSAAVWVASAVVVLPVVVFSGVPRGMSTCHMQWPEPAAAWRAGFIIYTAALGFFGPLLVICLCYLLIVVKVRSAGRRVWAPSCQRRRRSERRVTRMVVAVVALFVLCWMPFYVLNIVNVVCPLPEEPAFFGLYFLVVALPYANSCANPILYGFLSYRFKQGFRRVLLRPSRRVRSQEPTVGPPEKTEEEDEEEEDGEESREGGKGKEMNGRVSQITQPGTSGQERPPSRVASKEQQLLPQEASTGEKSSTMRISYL
How it was run: as §1

DRD2 = target: T20, DRD2 (Homo sapiens, UniProt P14416); experiment: PRESTO-Tango GPCR screen; conditions: 100 µM
T20 construct: purchased PRESTO-Tango GPCR kit (Roth lab / Addgene)
How it was run: as §1

HTR2C = target: T21, HTR2C (Homo sapiens, UniProt P28335); experiment: PRESTO-Tango GPCR screen; conditions: 100 µM
T21 construct: purchased PRESTO-Tango GPCR kit (Roth lab / Addgene)
T21 sequence (P28335 33-458): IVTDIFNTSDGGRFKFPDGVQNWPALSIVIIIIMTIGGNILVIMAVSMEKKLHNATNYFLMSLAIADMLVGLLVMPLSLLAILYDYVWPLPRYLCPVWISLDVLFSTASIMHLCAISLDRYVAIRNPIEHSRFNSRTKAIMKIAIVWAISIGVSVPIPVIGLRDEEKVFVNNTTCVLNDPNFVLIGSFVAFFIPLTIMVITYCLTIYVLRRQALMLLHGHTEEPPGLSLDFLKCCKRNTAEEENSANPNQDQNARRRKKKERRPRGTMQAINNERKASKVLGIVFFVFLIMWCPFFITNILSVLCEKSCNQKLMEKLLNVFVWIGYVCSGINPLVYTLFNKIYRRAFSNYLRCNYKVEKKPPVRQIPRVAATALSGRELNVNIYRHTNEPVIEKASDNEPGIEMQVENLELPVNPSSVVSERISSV
How it was run: as §1

NPY4R = target: T22, NPY4R (Homo sapiens, UniProt P50391); experiment: PRESTO-Tango GPCR screen; conditions: 100 µM
T22 construct: purchased PRESTO-Tango GPCR kit (Roth lab / Addgene)
How it was run: as §1

GPR84 = target: T23, GPR84 (Homo sapiens, UniProt Q9NQS5); experiment: PRESTO-Tango GPCR screen; conditions: 100 µM
T23 construct: purchased PRESTO-Tango GPCR kit (Roth lab / Addgene)
T23 sequence (Q9NQS5 whole entry): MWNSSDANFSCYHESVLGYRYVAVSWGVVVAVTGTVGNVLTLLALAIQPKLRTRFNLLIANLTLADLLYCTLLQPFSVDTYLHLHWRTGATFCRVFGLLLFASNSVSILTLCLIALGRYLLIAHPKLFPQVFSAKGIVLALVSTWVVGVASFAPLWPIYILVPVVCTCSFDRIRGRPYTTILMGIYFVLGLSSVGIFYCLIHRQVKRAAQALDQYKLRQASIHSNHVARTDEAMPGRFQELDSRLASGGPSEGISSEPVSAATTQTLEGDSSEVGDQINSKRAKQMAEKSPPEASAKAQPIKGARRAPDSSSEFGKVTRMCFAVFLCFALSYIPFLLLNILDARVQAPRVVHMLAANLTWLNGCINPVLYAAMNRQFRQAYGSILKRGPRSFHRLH
How it was run: as §1

GPR32 = target: T24, GPR32 (Homo sapiens, UniProt O75388); experiment: PRESTO-Tango GPCR screen; conditions: 100 µM
T24 construct: purchased PRESTO-Tango GPCR kit (Roth lab / Addgene)
T24 sequence (O75388 whole entry): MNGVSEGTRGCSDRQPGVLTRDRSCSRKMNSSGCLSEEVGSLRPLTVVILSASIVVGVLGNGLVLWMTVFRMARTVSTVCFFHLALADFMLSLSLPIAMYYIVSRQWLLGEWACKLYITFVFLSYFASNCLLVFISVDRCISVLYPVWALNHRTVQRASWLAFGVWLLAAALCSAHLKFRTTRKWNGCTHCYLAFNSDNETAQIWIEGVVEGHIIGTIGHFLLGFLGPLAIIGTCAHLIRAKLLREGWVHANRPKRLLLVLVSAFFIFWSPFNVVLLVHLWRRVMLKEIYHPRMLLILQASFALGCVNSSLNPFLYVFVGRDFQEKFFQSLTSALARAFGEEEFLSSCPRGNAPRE
How it was run: as §1

CD97 = target: T25, CD97 (Homo sapiens, UniProt P48960); experiment: PRESTO-Tango GPCR screen; conditions: 100 µM
T25 construct: purchased PRESTO-Tango GPCR kit (Roth lab / Addgene)
How it was run: as §1

HRH2 = target: T26, HRH2 (Homo sapiens, UniProt P25021); experiment: PRESTO-Tango GPCR screen and dose-response; conditions: for HRH2 dose-response raw reporter signal (Fig. 5b source data): replicate wells
T26 construct: expressed in transfected cells; host or cells: HTLA cells (HEK293 line stably expressing β-arrestin-TEV and tTA-Luciferase)
T26 sequence (P25021 whole entry): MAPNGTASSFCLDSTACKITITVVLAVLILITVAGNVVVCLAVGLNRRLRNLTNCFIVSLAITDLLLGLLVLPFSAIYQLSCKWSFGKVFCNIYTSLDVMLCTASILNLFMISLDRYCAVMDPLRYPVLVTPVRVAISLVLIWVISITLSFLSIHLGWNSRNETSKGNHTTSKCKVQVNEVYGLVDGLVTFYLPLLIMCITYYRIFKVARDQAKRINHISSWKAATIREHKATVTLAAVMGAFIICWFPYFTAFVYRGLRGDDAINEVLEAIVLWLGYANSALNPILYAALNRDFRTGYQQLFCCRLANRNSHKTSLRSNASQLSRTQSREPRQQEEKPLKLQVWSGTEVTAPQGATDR
How it was run: as §1

HRH1 = target: T27, HRH1 (Homo sapiens, UniProt P35367); experiment: PRESTO-Tango GPCR screen and dose-response; conditions: for HRH1 dose-response raw reporter signal (Fig. 5b source data): replicate wells
T27 construct: expressed in transfected cells; host or cells: HTLA cells (HEK293 line stably expressing β-arrestin-TEV and tTA-Luciferase)
T27 sequence (P35367 whole entry): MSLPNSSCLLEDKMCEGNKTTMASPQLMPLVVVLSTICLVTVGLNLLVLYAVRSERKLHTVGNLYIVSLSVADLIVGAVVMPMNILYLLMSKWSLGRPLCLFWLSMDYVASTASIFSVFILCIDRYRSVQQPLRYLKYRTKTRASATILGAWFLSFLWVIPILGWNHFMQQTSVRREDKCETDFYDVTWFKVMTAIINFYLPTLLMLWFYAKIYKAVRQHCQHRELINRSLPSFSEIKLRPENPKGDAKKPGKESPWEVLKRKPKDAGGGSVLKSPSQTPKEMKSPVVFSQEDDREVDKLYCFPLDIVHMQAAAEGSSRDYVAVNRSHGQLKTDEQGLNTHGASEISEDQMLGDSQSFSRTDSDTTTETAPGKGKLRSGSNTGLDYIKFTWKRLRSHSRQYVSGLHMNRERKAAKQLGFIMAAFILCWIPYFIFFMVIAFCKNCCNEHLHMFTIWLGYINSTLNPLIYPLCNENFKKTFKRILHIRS
How it was run: as §1

[1] = tested on: 314-member panel of human G protein-coupled receptors (GPCRs); experiment: PRESTO-Tango screen of 314-member human GPCR panel; conditions: 100 µM, HTLA cells
Method: The PRESTO-Tango analyses were performed as previously published. Briefly, HTLA cells, a HEK293 cell line that stably expresses β-arrestin-TEV and tTA-Luciferase (a kind gift from Gilad Barnea, Brown University), were plated in 96-well tissue culture plates (Eppendorf) in DMEM containing 10% FBS and 1% Penicillin/Streptomycin. One day after plating (after reaching approximately 90% confluence), 200 ng per well GPCR-Tango plasmids[37] in 20 μL DMEM were individually mixed with 400 ng polyethylenimine (Polysciences) in an equal volume of DMEM and incubated for 20 min at room temperature before adding the transfection mixture to the HTLA cells. 16-24 h after transfection, medium was replaced with 180 μL fresh DMEM containing 1% Penicillin/Streptomycin and 10 mM HEPES and 20 μL of 3 or 3-Homo to reach a final concentration of 100 μM. Supernatants were aspirated 20 h after stimulation and 50 μl per well of Bright-Glo solution (Promega) diluted 20-fold with PBS containing 20 mM HEPES was added into each well. After 15 min incubation at room temperature, luminescence was quantified using a Spectramax i3x microplate reader (Molecular Devices). Activation fold for each sample was calculated by dividing relative luminescence units (RLU) for each condition by RLUs from PBS control. […]

CC(C)Cc1ncc(CCCCNC(=N)N)[nH]c1=O [3-Homo]
GPCR activation (heatmap value) (MC1R): -0.8565
GPCR activation (heatmap value) (GPR116): -0.4317
GPCR activation (heatmap value) (AGTR2): 0.1974
GPCR activation (heatmap value) (BDKBR1): -0.9993
GPCR activation (heatmap value) (HTR1B): -0.02426
GPCR activation (heatmap value) (CHRM3): 0.5889
GPCR activation (heatmap value) (KISSPEPTIN-R): 1.206
GPCR activation (heatmap value) (PK1): -0.2718
GPCR activation (heatmap value) (ADRB1): 0.6163
GPCR activation (heatmap value) (GHSR): 0.75
GPCR activation (heatmap value) (P2RY4): 0.7408
GPCR activation (heatmap value) (GPR75): 0.5978
GPCR activation (heatmap value) (GPR152): -0.3396
GPCR activation (heatmap value) (CHRM1): -1.546
GPCR activation (heatmap value) (RXFP2): 0.2908
GPCR activation (heatmap value) (GPR113): -0.1784
GPCR activation (heatmap value) (DRD4): -0.04181
GPCR activation (heatmap value) (OPN3): 0.7317
GPCR activation (heatmap value) (SSTR3): 0.1422
GPCR activation (heatmap value) (DRD2): -0.9836
GPCR activation (heatmap value) (HTR2C): 0.3471
GPCR activation (heatmap value) (NPY4R): 1.0914
GPCR activation (heatmap value) (GPR84): 0.1656
GPCR activation (heatmap value) (GPR32): -0.1389
GPCR activation (heatmap value) (CD97): 0.04802
GPCR activation (heatmap value) (HRH2; HRH2, 100 µM): 0.6697
HRH2 dose-response raw reporter signal (Fig. 5b source data) (HRH2; Log(10)Conc (M) -4): 77 and 94 and 47
HRH2 dose-response raw reporter signal (Fig. 5b source data) (HRH2; Log(10)Conc (M) -5): 50 and 38 and 83
HRH2 dose-response raw reporter signal (Fig. 5b source data) (HRH2; Log(10)Conc (M) -6): 68 and 53 and 83
HRH2 dose-response raw reporter signal (Fig. 5b source data) (HRH2; Log(10)Conc (M) -7): 59 and 65 and 91
HRH2 dose-response raw reporter signal (Fig. 5b source data) (HRH2; Log(10)Conc (M) -8): 56 and 50 and 59
HRH2 dose-response raw reporter signal (Fig. 5b source data) (HRH2; Log(10)Conc (M) -9): 44 (2×) and 59
HRH2 dose-response raw reporter signal (Fig. 5b source data) (HRH2; Log(10)Conc (M) -10): 53 and 62 (2×)
HRH2 dose-response raw reporter signal (Fig. 5b source data) (HRH2; Log(10)Conc (M) -11): 29 and 53 and 74
HRH2 dose-response raw reporter signal (Fig. 5b source data) (HRH2; Log(10)Conc (M) -12): 50 and 65 and 53
HRH2 dose-response raw reporter signal (Fig. 5b source data) (HRH2; Log(10)Conc (M) -13): 53 and 27 and 91
HRH2 dose-response raw reporter signal (Fig. 5b source data) (HRH2; Log(10)Conc (M) -14): 41 and 77 and 68
HRH2 dose-response raw reporter signal (Fig. 5b source data) (HRH2; Log(10)Conc (M) -15): 47 and 29 and 100
GPCR activation (heatmap value) (HRH1; HRH1, 100 µM): 0.1843
HRH1 dose-response raw reporter signal (Fig. 5b source data) (HRH1; Log(10)Conc (M) -4): 49786 and 49898
HRH1 dose-response raw reporter signal (Fig. 5b source data) (HRH1; Log(10)Conc (M) -5): 48910 and 46012
HRH1 dose-response raw reporter signal (Fig. 5b source data) (HRH1; Log(10)Conc (M) -6): 48701 and 46228
HRH1 dose-response raw reporter signal (Fig. 5b source data) (HRH1; Log(10)Conc (M) -7): 46626 and 44830
HRH1 dose-response raw reporter signal (Fig. 5b source data) (HRH1; Log(10)Conc (M) -8): 47613 and 46402
HRH1 dose-response raw reporter signal (Fig. 5b source data) (HRH1; Log(10)Conc (M) -9): 46045 and 44597
HRH1 dose-response raw reporter signal (Fig. 5b source data) (HRH1; Log(10)Conc (M) -10): 46658 and 45508
HRH1 dose-response raw reporter signal (Fig. 5b source data) (HRH1; Log(10)Conc (M) -11): 45821 and 45927
HRH1 dose-response raw reporter signal (Fig. 5b source data) (HRH1; Log(10)Conc (M) -12): 46189 and 46705
HRH1 dose-response raw reporter signal (Fig. 5b source data) (HRH1; Log(10)Conc (M) -13): 47852 and 47304
HRH1 dose-response raw reporter signal (Fig. 5b source data) (HRH1; Log(10)Conc (M) -14): 47480 and 47139
HRH1 dose-response raw reporter signal (Fig. 5b source data) (HRH1; Log(10)Conc (M) -15): 43822 and 41222
selectivity across the GPCR panel [1]: selective agonists for histamine receptor H4
